Patent US10550105B2 (Ribon Therapeutics Inc., priority 2018, dated 2020)

What follows are molecules tested against PARP7 (Homo sapiens (Human), UniProt Q7Z3E1) (assay: Enzymatic assay for inhibition of PARP7: TR-FRET displacement of biotinylated Probe A from the TIPARP active site). Details: Table A-1.
Assay type: binding
Method in brief: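 Compounds were tested as dose-response series, and reactions were incubated a further 30 min at 25° C. TR-FRET was read at 320 nm excitation with 615 and 665 nm emission after a 90 μs delay. The 665/615 ratio gave the TIPARP–Probe A complex, and % inhibition was fitted against concentration.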

Sequence of PARP7 (Q7Z3E1 whole entry): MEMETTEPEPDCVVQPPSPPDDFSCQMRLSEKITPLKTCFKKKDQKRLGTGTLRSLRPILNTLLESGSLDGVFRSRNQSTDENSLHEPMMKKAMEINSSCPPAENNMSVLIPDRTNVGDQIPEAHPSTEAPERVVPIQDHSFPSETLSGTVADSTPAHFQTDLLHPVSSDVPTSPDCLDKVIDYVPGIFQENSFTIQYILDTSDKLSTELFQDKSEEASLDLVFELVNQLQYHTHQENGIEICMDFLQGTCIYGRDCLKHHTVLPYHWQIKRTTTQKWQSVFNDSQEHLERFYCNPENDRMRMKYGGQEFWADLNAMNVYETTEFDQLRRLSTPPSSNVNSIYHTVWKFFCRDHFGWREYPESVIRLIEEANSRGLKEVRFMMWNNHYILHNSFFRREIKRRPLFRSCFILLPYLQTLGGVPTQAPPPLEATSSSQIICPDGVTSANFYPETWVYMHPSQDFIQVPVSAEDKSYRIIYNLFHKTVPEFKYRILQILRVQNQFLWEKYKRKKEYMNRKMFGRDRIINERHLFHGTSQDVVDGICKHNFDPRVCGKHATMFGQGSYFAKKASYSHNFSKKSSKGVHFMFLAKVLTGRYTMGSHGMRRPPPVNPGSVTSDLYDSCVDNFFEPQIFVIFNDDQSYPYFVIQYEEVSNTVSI

| Structure (SMILES) | IC50 [µM] |
| --- | --- |
| C[C@@H](CSCCC(=O)N1CCN(c2ncc(C(F)(F)F)cn2)CC1)Oc1cn[nH]c(=O)c1C(F)(F)F [Example 621A, (S)-5-((1-((3-Oxo-3-(4-(5-(trifluoromethyl)pyrimidin-2-yl)piperazin-1-yl)propyl)thio)propan-2-yl)oxy)-4-(trifluoromethyl)pyridazin-3(2H)-one] | 0.1 to 1 |
| CN1CCN(c2cccc3c2CN(c2cn[nH]c(=O)c2C(F)(F)F)C3)CC1 [Example 314, 5-(4-(4-Methylpiperazin-1-yl)isoindolin-2-yl)-4-(trifluoromethyl)pyridazin-3(2H)-one] | 0.1 to 1 |
| COC[C@H](COCCC(=O)N1CCN(c2ccc(C#N)cn2)CC1)Oc1cn[nH]c(=O)c1C(F)(F)F (single isomer, unassigned) [Example 532 Isomer B] | 0.1 to 1 |
| COC[C@@H](CO[C@H](C)CC(=O)N1CCN(c2ccc(C#N)cn2)CC1)Oc1cn[nH]c(=O)c1C(F)(F)F (single isomer, unassigned) [Example 571 Isomer D] | 0.1 to 1 |
| CC(=O)N1CCC(Oc2cnc3c(c2)CN(c2cn[nH]c(=O)c2C(F)(F)F)C3)CC1 [Example 8, 5-[3-[(1-acetylpiperidin-4-yl)oxy]-5H,6H,7H-pyrrolo[3,4-b]pyridin-6-yl]-4-(trifluoro-methyl)-2,3-dihydropyridazin-3-one] | 0.1 to 1 |
| O=c1[nH]ncc(N2Cc3ccc(OC4CCNCC4)nc3C2)c1C(F)(F)F [Example 324, 5-(2-(Piperidin-4-yloxy)-5,7-dihydro-6H-pyrrolo[3,4-b]pyridin-6-yl)-4-(trifluoromethyl)pyridazin-3(2H)-one] | 0.1 to 1 |
| N#Cc1ccc(N2CCN(C(=O)[C@H]3CNC[C@H](OC[C@@H]4CCCN4c4cn[nH]c(=O)c4C(F)(F)F)C3)CC2)nc1 (single isomer, unassigned) [Example 56 Isomer B] | 0.1 to 1 |
| O=c1[nH]ncc(N2C[C@@H]3CCCN[C@@H]3C2)c1C(F)(F)F [Example 498, 5-((4aS,7aS)-Octahydro-6H-pyrrolo[3,4-b]pyridin-6-yl)-4-(trifluoromethyl)pyridazin-3(2H)-one] | ≥ 1 |
| O=C(c1cccc(OCC2c3ccccc3CN2c2cn[nH]c(=O)c2C(F)(F)F)c1)N1CCn2nccc2C1 (stereo not drawn) [Example 404, 5-(1-((3-(4,5,6,7-Tetrahydropyrazolo[1,5-a]pyrazine-5-carbonyl)phenoxy)methyl)isoindolin-2-yl)-4-(trifluoromethyl)pyridazin-3(2H)-one] | 0.1 to 1 |
| O=C(C[C@H]1CC[C@H](COc2cn[nH]c(=O)c2C(F)(F)F)O1)N1CCN(c2ncc(Cl)cn2)CC1 (single isomer, unassigned) [Example 565 Isomer B] | 0.1 to 1 |
| CNCCOc1ccc2c(n1)CN(c1cn[nH]c(=O)c1C(F)(F)F)C2 [Example 318, 5-(2-(2-(Methylamino)ethoxy)-5,7-dihydro-6H-pyrrolo[3,4-b]pyridin-6-yl)-4-(trifluoromethyl)pyridazin-3(2H)-one] | 0.1 to 1 |
| COCC1c2ccccc2CN1c1cn[nH]c(=O)c1Cl (stereo not drawn) [Example 207, 4-Chloro-5-(1-(methoxymethyl)isoindolin-2-yl)pyridazin-3(2H)-one] | ≥ 1 |
| NC1CCN(c2cccc3c2CN(c2cn[nH]c(=O)c2C(F)(F)F)C3)C1 (stereo not drawn) [Example 306, 5-(4-(3-Aminopyrrolidin-1-yl)isoindolin-2-yl)-4-(trifluoromethyl)pyridazin-3(2H)-one] | < 0.1 |
| O=c1[nH]ncc(N2Cc3cccc(OC4CCCOC4)c3C2)c1C(F)(F)F (stereo not drawn) [Example 268, 5-(4-((Tetrahydro-2H-pyran-3-yl)oxy)isoindolin-2-yl)-4-(trifluoromethyl)pyridazin-3(2H)-one] | < 0.1 |
| N#Cc1cnc(N2CCN(C(=O)c3cncc(OC[C@H]4c5ccccc5CN4c4cn[nH]c(=O)c4C(F)(F)F)c3)CC2)nc1 [Example 396, (R)-2-(4-(5-((2-(6-Oxo-5-(trifluoromethyl)-1,6-dihydropyridazin-4-yl)isoindolin-1-yl)methoxy)nicotinoyl)piperazin-1-yl)pyrimidine-5-carbonitrile] | ≥ 1 |
| O=C(C[C@@H]1CC[C@@H]([C@@H]2CCCN2c2cn[nH]c(=O)c2C(F)(F)F)O1)N1CCN(c2ncc(Cl)cn2)CC1 [Example 147A, 5-[(2S)-2-[(2S,5S)-5-[2-[4-(5-chloropyrimidin-2-yl)piperazin-1-yl]-2-oxoethyl]oxolan-2-yl]pyrrolidin-1-yl]-4-(trifluoromethyl)-2,3-dihydropyridazin-3-one] | < 0.1 |

Now from value to molecule:

| IC50 [µM] | Structure (SMILES) |
| --- | --- |
| < 0.1 | N#Cc1ccc(N2CCN(C(=O)c3cccc(NCC4CCCN4c4cn[nH]c(=O)c4C(F)(F)F)c3)CC2)nc1 (stereo not drawn) [Example 455, 6-(4-(3-(((1-(6-Oxo-5-(trifluoromethyl)-1,6-dihydropyridazin-4-yl)pyrrolidin-2-yl)methyl)amino)benzoyl)piperazin-1-yl)nicotinonitrile] |
| < 0.1 | C[C@@H](COCCC(=O)N1CC=C(c2ncc(C(F)(F)F)cn2)CC1)Nc1cn[nH]c(=O)c1C(F)(F)F [Example 652, (S)-5-((1-(3-Oxo-3-(4-(5-(trifluoromethyl)pyrimidin-2-yl)-3,6-dihydropyridin-1(2H)-yl)propoxy)propan-2-yl)amino)-4-(trifluoromethyl)pyridazin-3(2H)-one] |
| < 0.1 | O=c1[nH]ncc(N2Cc3cc(F)c(OC4CCCNC4)cc3C2)c1C(F)(F)F (stereo not drawn) [Example 58, 5-[5-fluoro-6-(piperidin-3-yloxy)-2,3-dihydro-1H-isoindol-2-yl]-4-(trifluoromethyl)-2,3-dihydropyridazin-3-one] |
| < 0.1 | O=C(C[C@@H]1CC[C@H](COc2cn[nH]c(=O)c2C(F)(F)F)O1)N1CCN(c2ccc(C(F)(F)F)cn2)CC1 (single isomer, unassigned) [Example 545 Isomer D] |
| < 0.1 | O=C(CCOCCOc1cn[nH]c(=O)c1Br)N1CCN(c2ncc(Cl)cn2)CC1 [Example 547, 4-Bromo-5-(2-[3-[4-(5-chloropyrimidin-2-yl)piperazin-1-yl]-3-oxopropoxy]ethoxy)-2,3-dihydropyridazin-3-one] |
| < 0.1 | C[C@@H](COCCC(=O)N1CCN(c2ncc(Cl)s2)CC1)Oc1cn[nH]c(=O)c1C(F)(F)F [Example 723, (S)-5-((1-(3-(4-(5-Chlorothiazol-2-yl)piperazin-1-yl)-3-oxopropoxy)propan-2-yl)oxy)-4-(trifluoromethyl)pyridazin-3(2H)-one] |
| < 0.1 | N#Cc1ccc(N2CCN(C(=O)c3cccc(OCCOc4cn[nH]c(=O)c4C(F)(F)F)c3)CC2)nc1 [Example 42, 6-(4-[[3-(2-[[6-oxo-5-(trifluoromethyl)-1,6-dihydropyridazin-4-yl]oxy]ethoxy)phenyl]carbonyl]piperazin-1-yl)pyridine-3-carbonitrile] |
| < 0.1 | N#Cc1ccc(N2CCN(C(=O)COCCOCc3cccc4c3CN(c3cn[nH]c(=O)c3C(F)(F)F)C4)CC2)nc1 [Example 124, 6-(4-[2-[2-([2-[6-oxo-5-(trifluoromethyl)-1,6-dihydropyridazin-4-yl]-2,3-dihydro-1H-isoindol-4-yl]methoxy)ethoxy]acetyl]piperazin-1-yl)pyridine-3-carbonitrile] |
| < 0.1 | C[C@@H](COCCC(=O)N1CCN(c2ncc(C(F)(F)F)cn2)CC1)Oc1cn[nH]c(=O)c1Br [Example 608, 4-Bromo-5-[[(2S)-1-(3-oxo-3-[4-[5-(trifluoromethyl)pyrimidin-2-yl]piperazin-1-yl]propoxy)propan-2-yl]oxy]-2,3-dihydropyridazin-3-one] |
| < 0.1 | N#Cc1ccc(N2CCN(C(=O)C#CCOC[C@@H]3CCCN3c3cn[nH]c(=O)c3C(F)(F)F)CC2)nc1 [Example 119, 6-[4-(4-[[(2S)-1-[6-oxo-5-(trifluoromethyl)-1,6-dihydropyridazin-4-yl]pyrrolidin-2-yl]methoxy]but-2-ynoyl)piperazin-1-yl]pyridine-3-carbonitrile] |
| < 0.1 | N#Cc1ccc(N2CCN(C(=O)c3cccc(OCC4CCCN4c4cn[nH]c(=O)c4C(F)(F)F)c3)CC2)nc1 (stereo not drawn) [Example 435, 6-(4-(3-((1-(6-Oxo-5-(trifluoromethyl)-1,6-dihydropyridazin-4-yl)pyrrolidin-2-yl)methoxy)benzoyl)piperazin-1-yl)nicotinonitrile] |
| < 0.1 | N#Cc1ccc(N2CCN(CCCOC[C@@H]3CCCN3c3cn[nH]c(=O)c3C(F)(F)F)CC2)nc1 [Example 90] |
| < 0.1 | O=C(CCOC[C@@H](CC1CCNCC1)Nc1cn[nH]c(=O)c1C(F)(F)F)N1CCN(c2ncc(C(F)(F)F)cn2)CC1 [Example 649, (R)-5-((1-(3-Oxo-3-(4-(5-(trifluoromethyl)pyrimidin-2-yl)piperazin-1-yl)propoxy)-3-(piperidin-4-yl)propan-2-yl)amino)-4-(trifluoromethyl)pyridazin-3(2H)-one] |
| < 0.1 | O=c1[nH]ncc(N2Cc3ccc(OC4CCNC4)cc3C2)c1C(F)(F)F (stereo not drawn) [Example 218, 5-(5-(Pyrrolidin-3-yloxy)isoindolin-2-yl)-4-(trifluoromethyl)pyridazin-3(2H)-one] |
| < 0.1 | C[C@@H](COCCC(=O)N1CCN(c2ccc(C(F)(F)F)cn2)CC1)Oc1cn[nH]c(=O)c1C(F)(F)F [Example 584, 5-[[(2S)-1-(3-oxo-3-[4-[5-(trifluoromethyl)pyridin-2-yl]piperazin-1-yl]propoxy)propan-2-yl]oxy]-4-(trifluoromethyl)-2,3-dihydropyridazin-3-one] |
| < 0.1 | C[C@@H](COCCC(=O)N1CCN(c2ncc(Cl)cn2)CC1)Nc1cn[nH]c(=O)c1Br [Example 602] |
| < 0.1 | O=C(c1cccc(OC[C@@H]2CCCN2c2cn[nH]c(=O)c2C(F)(F)F)c1)N1CCN(c2ncccn2)CC1 [Example 445, (S)-5-(2-((3-(4-(Pyrimidin-2-yl)piperazine-1-carbonyl)phenoxy)methyl)pyrrolidin-1-yl)-4-(trifluoromethyl)pyridazin-3(2H)-one] |
